In patent US7439226B2, “Serine protease inhibitors” (The United States of America as represented by the …, priority 2003, dated 2008):
pKi: −log10 of the molar value.

Experiments:
elastase = conditions: background statement; cited from earlier work
bovine thrombin = molecular target: T1, bovine thrombin (Bos taurus, UniProt P00735); assay: Thrombin inhibition, fluorescent substrate N-t-Boc Leu-Arg-Arg-AMC, Ki by Dixon plots; assay type: biochemical; conditions: read-out: Ki of SFTI-1 (nM), Thrombin; room temperature, pH 8.5
T1 construct: purchased Sigma (Sigma Chemical Co., St. Louis, Mo.)
Excerpt: (§1) 13, 2003, and which is incorporated herein by reference.

thrombin = thrombin (Homo sapiens, UniProt P00734); conditions: background statement; cited from earlier work
matriptase = matriptase (Homo sapiens, UniProt Q9Y5Y6); conditions: background statement; cited from earlier work
Factor Xa = Factor Xa (Homo sapiens, UniProt P00742); conditions: Luckett et al. J Mol. Biol. 1999; cited from earlier work
cathepsin G = molecular target: T2, cathepsin G (Homo sapiens, UniProt P08311); conditions: background statement; cited from earlier work
T2 sequence (P08311 21-244): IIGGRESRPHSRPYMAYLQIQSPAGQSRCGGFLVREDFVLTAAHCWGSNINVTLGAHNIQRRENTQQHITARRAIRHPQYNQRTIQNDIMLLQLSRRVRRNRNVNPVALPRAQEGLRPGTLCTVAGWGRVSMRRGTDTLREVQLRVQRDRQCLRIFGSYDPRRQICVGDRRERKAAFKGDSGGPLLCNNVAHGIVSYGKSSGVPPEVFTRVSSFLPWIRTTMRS

[1] = molecular target: T3, Urokinase-type plasminogen activator (uPA) (Homo sapiens, UniProt P00749); assay: uPA inhibition, fluorescent substrate N-t-Boc-Leu-Gly-Arg-AMC, Ki by Dixon plots; assay type: biochemical; conditions: room temperature, pH 8.5
T3 construct: from a partially purified uPA from human urine; from tissue; host or cells: human urine
Excerpt: as §1

Factor Xa, sequence (P00742 235-488 limits assumed): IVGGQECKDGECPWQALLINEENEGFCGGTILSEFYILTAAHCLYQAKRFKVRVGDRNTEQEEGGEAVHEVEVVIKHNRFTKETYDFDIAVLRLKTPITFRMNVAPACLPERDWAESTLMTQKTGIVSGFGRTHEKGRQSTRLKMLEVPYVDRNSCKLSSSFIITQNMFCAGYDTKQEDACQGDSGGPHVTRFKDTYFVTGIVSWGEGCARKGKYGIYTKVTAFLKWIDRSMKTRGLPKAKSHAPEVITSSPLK
Factor Xa, sequence (P00742 41-179 partner limits assumed): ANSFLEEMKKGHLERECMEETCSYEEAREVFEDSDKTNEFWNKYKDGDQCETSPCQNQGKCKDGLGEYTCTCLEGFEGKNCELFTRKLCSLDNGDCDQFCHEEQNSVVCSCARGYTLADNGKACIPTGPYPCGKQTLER
matriptase, sequence (Q9Y5Y6 whole entry, species assumed): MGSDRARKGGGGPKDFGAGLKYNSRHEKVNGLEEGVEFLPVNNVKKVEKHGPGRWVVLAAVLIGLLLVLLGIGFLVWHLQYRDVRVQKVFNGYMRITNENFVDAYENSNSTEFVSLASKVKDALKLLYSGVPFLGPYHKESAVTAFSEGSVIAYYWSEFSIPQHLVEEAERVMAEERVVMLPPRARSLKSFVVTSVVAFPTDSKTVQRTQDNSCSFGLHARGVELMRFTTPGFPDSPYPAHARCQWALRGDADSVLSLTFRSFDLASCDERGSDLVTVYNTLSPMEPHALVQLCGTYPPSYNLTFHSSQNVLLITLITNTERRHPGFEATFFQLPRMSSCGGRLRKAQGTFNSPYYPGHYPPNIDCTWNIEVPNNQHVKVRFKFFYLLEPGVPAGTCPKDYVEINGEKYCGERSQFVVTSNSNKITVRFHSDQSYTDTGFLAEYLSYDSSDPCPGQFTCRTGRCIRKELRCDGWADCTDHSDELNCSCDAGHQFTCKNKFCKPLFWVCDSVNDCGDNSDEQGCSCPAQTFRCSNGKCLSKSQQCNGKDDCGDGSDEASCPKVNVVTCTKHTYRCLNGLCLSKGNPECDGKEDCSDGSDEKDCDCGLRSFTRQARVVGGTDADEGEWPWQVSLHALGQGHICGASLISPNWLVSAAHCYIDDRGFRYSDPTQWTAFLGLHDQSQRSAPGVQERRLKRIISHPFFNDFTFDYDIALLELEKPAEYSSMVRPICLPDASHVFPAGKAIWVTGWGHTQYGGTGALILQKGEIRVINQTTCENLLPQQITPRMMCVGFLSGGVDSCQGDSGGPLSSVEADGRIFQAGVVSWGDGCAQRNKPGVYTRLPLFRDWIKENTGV

## CC[C@H](C)[C@@H]1NC(=O)[C@@H]2CCCN2C(=O)[C@@H]2CCCN2C(=O)[C@H]([C@@H](C)CC)NC(=O)[C@H](CO)NC(=O)[C@H](CCCCN)NC(=O)[C@H]([C@@H](C)O)NC(=O)[C@@H]2CSSC[C@H](NC1=O)C(=O)N[C@@H](Cc1ccccc1)C(=O)N1CCC[C@H]1C(=O)N[C@@H](CC(=O)O)C(=O)NCC(=O)N[C@@H](CCCNC(=N)N)C(=O)N2 [SFTI-1]
elastase
  inhibitory activity against elastase compared with matriptase: three orders of magnitude lower
Bovine thrombin
  Ki: 5050 nM
thrombin
  inhibitory activity against thrombin compared with matriptase: three orders of magnitude lower
matriptase
  inhibitory constant (Ki) against matriptase: subnanomolar
Factor Xa
  effect on the activity of Factor Xa: no detectable effect
Cathepsin G
  inhibitory constant (Ki) against cathepsin G: subnanomolar
[1]
  pKi: 3.30
